# Assay results from EP0928340B1, “INVASION-INHIBITORS FOR USE IN WOUND HEALING AND CANCER” (THE REGENTS OF THE UNIVERSITY OF MICHIGAN, priority 1996, dated 2009).
# Like-named read-outs stand apart in the source and are kept apart here.
# Assays:
# [1] = tested on: DU-145 prostate cancer cells; assay: SU-ECM in vitro invasion assay, human prostate cancer cells; assay type: cell-based; conditions: for IC100: Homo sapiens, DU-145, read-out: concentration that completely (fully) inhibits invasion
# Description: Adult Strongylocentrotus purpuratus sea urchins were obtained from Pacific BioMarine, and their embryos were cultured to the early pluteus stage in artificial sea water at 15°C. SU-ECM were prepared from them by treatment with nonionic detergent and strerilized by dilution in the appropriate media.
# […] When appropriate, purified bovine plasma fibronectin (Sigma), purified 120 kDa chymotryptic fragment (Gibco BRL). PHSRN or PHSCN peptides (synthesized at the Biomedical Research Core Facilities of the University of Michigan), or GRGDSP or GRGESP peptides (Gibco BRL) were added to the resuspended cells prior to placement of the cells on SU-ECM. In each well of a plate used for an invasion assay, SU-ECM were placed in 0.5 ml of the appropriate medium, and 0.5ml of the resuspended cells dropped on their exterior surfaces. Invasion assays were incubated 1 to 16 hours prior to assay. If some circumstances, invasion assays were fixed in phosphate-buffered saline (PBS) with 2% formaldehyde for 5 minutes at room temperature, then rinsed into PBS.
# Invasion assays were coded and scored blindly by microscopic examination under phase contrast at 200- and 400-fold magnification. Each cell contacting an SU-ECM was scored for its position relative to the exterior or interior surfaces. A cell was judged to have invaded if it was located on an interior surface below the focal plane passing through the upper surface of the SU-ECM, but above the focal plane passing through its lower surface. The minimum viability of the cells in each assay was always ascertained at the time of assay by determining the fraction of spread, adherent cells on the bottom of each well scored.
# An invasion frequency is defined as the fraction of cells in contact with basement membranes which were located in their interiors at the time of assay. Thus, an invasion frequency of 1 denotes invasion by 100% of the cells in contact with basement membranes. Invasion frequencies were determined multiple times for each cell type assayed. For each type of cell assayed the mean and standard deviation of the invasion frequencies were calculated.
# The method of Example 4 is employed, with the addition of varying concentrations of the PHSCN peptide.
# Thus, the procedure in Example 4 provides a method for determining the inhibitory potential of the PHSCN peptide by comparing the number of cell invasions in the presence of the PHSCN peptide, with the number of cell invasions in the absence of the PHSCN peptide.
# In this example, in vitro invasion of cancer cells into substrates is inhibited with peptides that have been chemically modified with protecting groups and peptides having protecting groups as well as the modification wherein an L-amino acid has been replaced with the D-isomer. PHSCN peptide, blocked PHSCN peptide, and blocked PHSCN peptide with a D-cysteine instead of the L-isomer, were tested (Figure 11).
# In this example, in vitro invasion of cancer cells into substrates is inhibited with non-peptide mimetics in comparison with chemically modified peptides (on a molar basis). The peptides of Example 14 (i.e. peptides chemically modified with protecting groups and peptides having protecting groups as well as the modification wherein an L-amino acid has been replaced with the D-isomer) were compared with the non-peptide mimetics DL-N-Acetylhomocysteinethiolactone, Thiobutyrolactone, and Mercaptopropionic acid, in order to investigate the structure activity relationship for invasion inhibition by interaction with the PHSRN-binding pocket of the α5β1 fibronectin receptor (Figure 12)
# [2] = target: α5β1 integrin fibronectin receptor (human) (UniProt P08648); assay: cell-based or functional assay
# UniProt P08648, sequence (P08648 42-1049, chain 1 of 2): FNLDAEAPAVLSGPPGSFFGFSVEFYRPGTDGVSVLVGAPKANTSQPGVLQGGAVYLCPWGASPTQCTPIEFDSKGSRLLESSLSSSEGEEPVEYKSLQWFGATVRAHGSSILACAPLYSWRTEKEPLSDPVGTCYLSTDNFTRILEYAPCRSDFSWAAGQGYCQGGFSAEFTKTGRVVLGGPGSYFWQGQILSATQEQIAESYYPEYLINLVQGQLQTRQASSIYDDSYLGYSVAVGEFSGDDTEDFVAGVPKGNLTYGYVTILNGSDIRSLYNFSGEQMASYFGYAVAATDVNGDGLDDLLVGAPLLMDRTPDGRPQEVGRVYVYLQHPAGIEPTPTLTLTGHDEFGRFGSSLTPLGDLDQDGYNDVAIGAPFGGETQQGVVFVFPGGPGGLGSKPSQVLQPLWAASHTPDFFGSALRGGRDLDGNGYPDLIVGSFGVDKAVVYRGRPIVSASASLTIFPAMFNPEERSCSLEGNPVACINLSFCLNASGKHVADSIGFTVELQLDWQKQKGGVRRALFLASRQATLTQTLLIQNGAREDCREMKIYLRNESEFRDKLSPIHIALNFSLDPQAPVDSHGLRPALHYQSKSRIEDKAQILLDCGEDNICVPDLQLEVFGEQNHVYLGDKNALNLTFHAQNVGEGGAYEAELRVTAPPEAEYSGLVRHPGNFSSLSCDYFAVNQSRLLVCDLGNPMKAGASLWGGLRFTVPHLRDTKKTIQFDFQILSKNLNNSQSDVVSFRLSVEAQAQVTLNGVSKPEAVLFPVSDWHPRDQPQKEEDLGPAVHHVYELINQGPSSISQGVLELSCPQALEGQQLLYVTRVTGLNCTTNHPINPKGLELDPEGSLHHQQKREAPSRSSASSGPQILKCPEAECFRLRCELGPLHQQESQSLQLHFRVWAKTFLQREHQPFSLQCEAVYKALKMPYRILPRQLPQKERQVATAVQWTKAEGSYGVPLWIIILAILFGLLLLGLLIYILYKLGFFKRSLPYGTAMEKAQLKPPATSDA
# UniProt P08648, sequence (P05556 21-798, chain 2 of 2, further chain): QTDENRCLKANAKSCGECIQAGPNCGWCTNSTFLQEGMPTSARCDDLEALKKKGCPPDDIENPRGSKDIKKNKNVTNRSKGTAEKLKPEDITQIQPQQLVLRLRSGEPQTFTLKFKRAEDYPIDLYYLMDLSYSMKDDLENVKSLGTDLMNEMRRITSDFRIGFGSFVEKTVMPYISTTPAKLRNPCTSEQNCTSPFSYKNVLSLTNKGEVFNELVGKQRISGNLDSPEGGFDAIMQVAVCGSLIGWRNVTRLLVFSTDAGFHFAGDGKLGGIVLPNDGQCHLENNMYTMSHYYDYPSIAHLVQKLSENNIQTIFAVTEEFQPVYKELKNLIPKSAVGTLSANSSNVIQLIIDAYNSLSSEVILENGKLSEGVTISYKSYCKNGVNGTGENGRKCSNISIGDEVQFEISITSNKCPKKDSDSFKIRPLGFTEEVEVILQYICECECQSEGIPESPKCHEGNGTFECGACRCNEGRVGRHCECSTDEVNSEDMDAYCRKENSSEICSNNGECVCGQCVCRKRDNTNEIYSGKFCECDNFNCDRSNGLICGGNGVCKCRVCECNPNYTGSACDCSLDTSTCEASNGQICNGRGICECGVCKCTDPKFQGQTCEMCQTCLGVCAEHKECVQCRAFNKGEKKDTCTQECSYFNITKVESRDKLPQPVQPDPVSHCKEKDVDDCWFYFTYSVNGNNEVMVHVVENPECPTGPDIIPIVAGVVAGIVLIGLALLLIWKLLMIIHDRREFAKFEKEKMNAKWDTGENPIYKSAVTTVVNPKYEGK
# [3] = target: α5β1 integrin fibronectin receptor (human) (UniProt P08648); assay: cell-based or functional assay; remark: listed apart in the source
# [4] = invasion inhibition, molar basis (Figure 12)
concentration giving complete inhibition of invasion of metastatic DU145 cells into SU-ECM in medium with 10% serum [2],concentration giving complete inhibition of invasion of metastatic DU145 cells into SU-ECM in medium with 10% serum [3],Molecule,IC100 [1],"less active than blocked PHSCN [1, 4]","less active than the unblocked PHSCN peptide [1, 4]",further results
,,CC(=O)NC1CCSC1=O (racemic) [DL-N-Acetylhomocysteinethiolactone],0.6 µM,about 10 fold,,"more active than the unblocked PHSCN peptide [1, 4]: about 3 fold"
,,O=C(O)CCS [Mercaptopropionic acid],,,1500 times,"reduction of DU145 invasion ([1]; at any of the concentrations tested, medium with 10% serum (Figure 12)): ≤ 20%; less active in invasion inhibition than thiobutyrolactone [1, 4]: at least 100 times"
,,O=C1CCCS1 [Thiobutyrolactone],30 µM,about 500 fold,15 times,"less active than N-acetylhomocysteinethiolactone [1, 4]: 50 fold"
,,Ac-PHSCN-NH2 [Ac-PHSCN-NH2],,,,"concentration that completely inhibits invasion ([1]; medium with 10% serum (Example 14, Figure 11)): approximately 1.3 ng/ml; concentration that completely (fully) inhibits invasion ([1]; medium with 10% serum (Example 15, Figure 12)): approximately 0.06 µM"
1.3 ng/mL,0.06 µM,Ac-PHSCN-NH2 peptide,,,,
3 ng/mL,2 µM,PHSCN peptide,,,,
